Read-outs that look alike come from different tables or passages of the source. Ends that are not written are not given here.
Columns and labels:
CCL8 [1] = biological target: T1, CCL8 (Homo sapiens, UniProt P80075); experiment: CCL8-induced THP1 cell migration (chemotaxis); type: cell-based; details: for effect on chemokine-induced cell migration compared with scrambled control HD2SCR: peptides 10 μM, chemokine at EC80, THP1 cells, n = 3 biological replicates, Dunnett's test
T1 construct: purchased Peprotech 300-15
T1 sequence (P80075 24-99): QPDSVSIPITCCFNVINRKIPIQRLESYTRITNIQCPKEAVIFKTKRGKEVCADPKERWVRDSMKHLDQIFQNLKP
Description: (§1) For THP1 migration assays, 300000 cells/well were added to the top chamber of a 5-µm 96-well Transwell insert (3387, Corning) in 50 µL of cell migration media (RPMI-1640 (R0883, Sigma), 0.5% FBS (F9665, Sigma), 4 mM L-Glutamine (G7513, Sigma), 0.05% DMSO (D4540, Sigma)). The bottom chamber contained 150 µL of migration media with chemokine and peptide added. Cells were migrated at 37 °C in 5% CO2 for 4 h.
Following the migration assay the migration plate was shaken at 850 RPM for 10 min, and media from bottom plate transferred to a round-bottomed 96 well plate (353910, Falcon). Cell counts were determined using an Atune NxT Flow Cytometer Plate Reader with Cytkick autosampler (ThermoFisher), based on cell size parameters FSC-H/SSC-H, and a previously defined gate setting for each cell type (Supplementary Fig. 11). All experiments were performed as three technical and three biological replicates. Statistical significances between control and experimental groups was evaluated using Dunnett’s test[73]. IC50 experiments were performed at the EC80 dose of chemokine. EC80 was calculated by fitting a chemokine dose-response curve with a 3-parameter log-logistic model (fixing the top to 100%) using the function “drm” in R-package drc[74]. IC50 was calculated by fitting an inhibitor response curve with a 4-parameter log-logistic model using the function “drm” in R-package drc[74]. All IC50 values reported had p-value < 0.05.

CXCL10 [2] = biological target: T2, CXCL10 (Homo sapiens, UniProt P02778); experiment: CXCL10-induced activated T cell (ATC) migration (chemotaxis); type: cell-based
T2 construct: purchased Peprotech 300-12
Description: For activated-T cell migration assays, 100000 cells/well were added to the top chamber of a 3-µm Transwell insert (3385, Corning) in 50 µL of migration media (HBSS (14025-092, Life Technologies), 0.1% protease free bovine serum albumin (A7030, Sigma), 0.05% DMSO (D4540, Sigma)). The bottom chamber contained 150 µL of migration media with chemokine and peptide added. Cells were migrated at 37 °C in 5% CO2 for 2 h.
(§2) Following the migration assay the migration plate was shaken at 850 RPM for 10 min, and media from bottom plate transferred to a round-bottomed 96 well plate (353910, Falcon). Cell counts were determined using an Atune NxT Flow Cytometer Plate Reader with Cytkick autosampler (ThermoFisher), based on cell size parameters FSC-H/SSC-H, and a previously defined gate setting for each cell type (Supplementary Fig. 11). All experiments were performed as three technical and three biological replicates. Statistical significances between control and experimental groups was evaluated using Dunnett’s test[73]. IC50 experiments were performed at the EC80 dose of chemokine. EC80 was calculated by fitting a chemokine dose-response curve with a 3-parameter log-logistic model (fixing the top to 100%) using the function “drm” in R-package drc[74]. IC50 was calculated by fitting an inhibitor response curve with a 4-parameter log-logistic model using the function “drm” in R-package drc[74]. […]

CXCL6 = biological target: T3, CXCL6 (Homo sapiens, UniProt P80162); experiment: CXCL6-induced Jurkat CXCR1 (J:CXCR1) migration (chemotaxis); type: cell-based
T3 construct: purchased Peprotech 300-41
Description: as §1
J:CXCR1 migration assays were performed exactly as for THP1 assays except that a 3-µm Transwell insert (3385, Corning) was used.
Following the migration assay the migration plate was shaken at 850 RPM for 10 min, and media from bottom plate transferred to a round-bottomed 96 well plate (353910, Falcon). Cell counts were determined using an Atune NxT Flow Cytometer Plate Reader with Cytkick autosampler (ThermoFisher), based on cell size parameters FSC-H/SSC-H, and a previously defined gate setting for each cell type (Supplementary Fig. 11). […] Statistical significances between control and experimental groups was evaluated using Dunnett’s test[73]. […] EC80 was calculated by fitting a chemokine dose-response curve with a 3-parameter log-logistic model (fixing the top to 100%) using the function “drm” in R-package drc[74]. IC50 was calculated by fitting an inhibitor response curve with a 4-parameter log-logistic model using the function “drm” in R-package drc[74]. […]

CCL5 [3] = biological target: T4, CCL5 (Homo sapiens, UniProt P13501); experiment: CCL5-induced THP1 cell migration (chemotaxis); type: cell-based
T4 construct: purchased Peprotech 300-06
T4 sequence (P13501 24-91): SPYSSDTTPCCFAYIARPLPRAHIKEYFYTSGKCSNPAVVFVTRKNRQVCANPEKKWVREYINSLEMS
Description: as §1, §2

CCL7 [4] = biological target: T5, CCL7 (Homo sapiens, UniProt P80098); experiment: CCL7-induced THP1 cell migration (chemotaxis); type: cell-based
T5 construct: purchased Peprotech 300-17
Description: as §1, §2

CCL5 [5] = details: cited from earlier work
Text: Peptides and peptidomimetics that mimic the activity of parental proteins have been successfully developed from several naturally occurring proteins into viable clinical therapeutics. Exemplars include the peptidomimetics captopril, eptifibatide and tirofiban, which are based on peptides derived from the snake venom toxins bradykinin-potentiating-peptide, barbourin and echistatin respectively. […] Inspired by these exemplars, by usi ...

[6] = tested on: 25 biotinylated chemokines; experiment: Phage-display library selection with deep sequencing; type: binding, human; details: multivalent p8 phage display, three selection rounds, 25 chemokine baits, enrichment vs input library
Description: Phage display screening was performed using a protocol as described[71] with certain modifications. Experiments were performed in 96-well plates (Greiner Bio-One, 655180). Briefly, biotinylated chemokines (1 μg, Almac or ProteinFoundry, Supplementary Table 1) were immobilised on 5 μl streptavidin-coated magnetic beads (Dynabeads™ M-280 Streptavidin, Invitrogen, 11205D) and incubated overnight at 4 °C. […]
Inserts from the input library and from the final phage population following selection were amplified by PCR using primers: 5′- […] and 5′-[…], (Life Technologies). The PCR products were cleaned up using Monarch® PCR & DNA Cleanup Kit (5 μg) (T1030, NEB), 260/280 ratio determined by Nanodrop, quantified using a Qubit dsDNA Quantitation, High Sensitivity Kit (Q32851, Thermo Scientific) and subsequently sequenced at Azenta/GeneWiz using the AmpliconEZ protocol.
Paired end read Fastq files were joined by the read id. […] Hexadecapeptide enrichment (E) following selection was calculated as ratio of output peptide frequency to input peptide frequency and expressed as log2E. […]

CXCL13 = experiment: Biolayer interferometry cross-binding screen; parameters: species or system human; details: 1 μM chemokine, fusion 1 mg/mL immobilised; specific if Rmax exceeded 3 times Rmax of SUMO:HD2SCR; two independent experiments
Description: (§3) The binding of His-SUMO tagged peptide fusions to various chemokines (Supplementary Table 3) was investigated by biolayer interferometry (BLI) using Ni-NTA biosensors (18-5101, ForteBio). All BLI data were obtained at 25 °C using a ForteBio-Sartorius Octet RED 384 instrument and Octet 384-well tilted bottom microplate (18-5080, Sartorius). The biosensors were preincubated overnight at room temperature in BLI buffer (PBS, 500 mM NaCl, 0.01% BSA (A7638, Sigma) + 0.002% Tween (P2287, Sigma)). His-SUMO tagged peptide fusions at 1 mg/mL (for cross-binding screen assay) and at 0.25 mg/mL (for kinetic assays) were immobilised on the Ni-NTA biosensors for 500 s using the BLI buffer. The HIS:SUMO fusion-loaded biosensors were then washed in the BLI buffer to allow signal stabilisation. To study the association with the analyte (chemokines), the biosensors were then dipped in chemokine solutions of various concentrations (1 μM for cross-binding screen assays, a range of 25–750 nM for kinetic assays) made in the BLI buffer, for either 300 s for cross-binding screen assays, or 600 s for kinetic assays. This was followed by the dissociation step, where the biosensors were incubated in BLI buffer for 300 s for screening assays and 600 s for kinetic assays. For chemokine cross-binding screens, wavelength shift was normalised by subtracting the signal from buffer control, and normalising the highest Rmax (i.e., with CCL8 and HD2) obtained in the experiment to 1. Kinetic data was analysed using buffer subtracted wavelength shift and a 1:1 binding model. […]
(§4) independent experiments. Plots display normalised wavelength shift (y axis; nm) versus time (x-axis; seconds). Vertical dotted line indicates the onset of dissociation. Cross-binding experiments (at 1 uM chemokine concentration) were performed with a panel of chemokines (see Supplementary information
(§5) Table 3). […] Chemokine names are indicated. […]
(§6) specific binding in two independent experiments are shown. […]

CCL11 = experiment: Biolayer interferometry cross-binding screen; parameters: species or system human; details: 1 μM chemokine, fusion 1 mg/mL immobilised; specific if Rmax exceeded 3 times Rmax of SUMO:HD2SCR; two independent experiments
Description: as §3, §4, §5, §6

CCL1 = experiment: Biolayer interferometry cross-binding screen; parameters: species or system human; details: 1 μM chemokine, fusion 1 mg/mL immobilised; specific if Rmax exceeded 3 times Rmax of SUMO:HD2SCR; two independent experiments
Description: as §3, §4, §5, §6

CCL8 [7] = biological target: T1, CCL8; experiment: Biolayer interferometry, His-SUMO peptide fusion binding to chemokine
Text: We next evaluated the ability of the exemplar peptide HD2 to bind a panel of chemokines (Supplementary Table 3) using biolayer interferometry (BLI). We generated HD2 and a scrambled control (HD2SCR) as HIS:SUMO fusion proteins in E.coli. This approach results in soluble proteins that can be immobilised on to BLI sensors through the N-terminal HIS tag. […] The binding of HD2 to these chemokines was characterised at different chemokine doses to evaluate binding affinity (KD). […] As chemokines are known to oligomerize in solution and also upon glycosaminoglycan binding, the most parsimonious explanation for this binding profile is chemokine oligomerization at the BLI sensor. […] The most likely explanation is that multivalent phage peptide-display allows identification of lower affinity interactions in comparison to BLI[40].
The binding of His-SUMO tagged peptide fusions to various chemokines (Supplementary Table 3) was investigated by biolayer interferometry (BLI) using Ni-NTA biosensors (18-5101, ForteBio). All BLI data were obtained at 25 °C using a ForteBio-Sartorius Octet RED 384 instrument and Octet 384-well tilted bottom microplate (18-5080, Sartorius). […] Kinetic data was analysed using buffer subtracted wavelength shift and a 1:1 binding model.

CCL7 [8] = biological target: T5, CCL7; experiment: Biolayer interferometry cross-binding screen; details: 1 μM chemokine, fusion 1 mg/mL immobilised; specific if Rmax exceeded 3 times Rmax of SUMO:HD2SCR; two independent experiments
Description: as §3, §4, §5, §6

CXCL10 [9] = biological target: T2, CXCL10; experiment: Biolayer interferometry cross-binding screen; details: 1 μM chemokine, fusion 1 mg/mL immobilised; specific if Rmax exceeded 3 times Rmax of SUMO:HD2SCR; two independent experiments
Description: as §3, §4, §5, §6

CCL5 [10] = biological target: T4, CCL5; experiment: Biolayer interferometry cross-binding screen; details: 1 μM chemokine, fusion 1 mg/mL immobilised; specific if Rmax exceeded 3 times Rmax of SUMO:HD2SCR; two independent experiments
Description: as §3, §4, §5, §6

T3 sequence (P80162 38-114): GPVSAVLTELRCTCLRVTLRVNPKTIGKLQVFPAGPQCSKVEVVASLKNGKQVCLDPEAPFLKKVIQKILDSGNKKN
T5 sequence (P80098 24-99): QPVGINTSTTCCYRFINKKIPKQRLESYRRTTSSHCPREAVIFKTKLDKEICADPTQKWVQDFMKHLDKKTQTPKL

Substance: DEDYEDFFKPVTCYFA [HD540, hexadecapeptide from evasin EV672_RHIPC]
- effect on chemokine-induced cell migration compared with scrambled control HD2SCR (CCL8 [1]): inhibition

Substance: EDEDYEDFFKPVTCYF [HD845, hexadecapeptide from evasin EV672_RHIPC, previously described as BK1.5]
- effect on chemokine-induced cell migration compared with scrambled control HD2SCR (CCL8 [1]): inhibition

Substance: EEDDYTAYAPLTCYFT-NH2 [HD2]
- IC50 (CXCL10 [2]): 2500 nM
- IC50 (CXCL6): 7100 nM
- IC50 (CXCL6; IC50, median, median of biological replicates (n = 3), Fig. 6k, J:CXCR1 cells, chemokine at EC80): 14000 nM
- IC50 (CCL5 [3]): 790 nM
- IC50 (CCL8 [1]): 19 nM
- IC50 (CCL7 [4]): 5700 nM

Substance: EEEDDYTAYAPLTAYFTN [Ev4Glu^14-Asn^31]
- inhibition of CCL5 function (CCL5 [5]): inhibits CCL5 function

Substance: EEEDDYTAYAPLTCYF [HD7, hexadecapeptide from evasin EVA4_RHISA]
- number of chemokines bound with log2E > 5 [6]: over 15

Substance: sHD2: HD2 generated as HIS:SUMO fusion protein in E.coli for BLI (EEDDYTAYAPLTCYFT; also: HIS:SUMO fusion protein, side not given here)
- specific binding in BLI cross-binding screen (CXCL13): specifically and reproducibly bind
- specific binding in BLI cross-binding screen (CCL11): specifically and reproducibly bind
- specific binding in BLI cross-binding screen (CCL1): specifically and reproducibly bind
- specific binding in BLI cross-binding screen (CCL8 [7]; 1 μM chemokine, fusion 1 mg/mL immobilised, specific if Rmax exceeded 3 times Rmax of SUMO:HD2SCR, two independent experiments): specifically and reproducibly bind
- Kd (CCL8 [7]; Expt ID E12, N = 5 dose responses with good fits, BLI kinetic assay, 1:1 binding model, 25 °C): 142 nM
- specific binding in BLI cross-binding screen (CCL7 [8]): specifically and reproducibly bind
- specific binding in BLI cross-binding screen (CXCL10 [9]): specifically and reproducibly bind
- specific binding in BLI cross-binding screen (CCL5 [10]): specifically and reproducibly bind
